Experimental data published in patent US5132424A, “Pyrazolo-pyrrolo-pyrimidine-diones” (The Upjohn Company, priority 1991, dated 1992).

Tests used:
[1] = tested on: ACAT enzyme; assay: ACAT Inhibition Assay (inhibition of cholesterol esterification in cultured Fu5AH rat hepatoma cells); type: cell-based; parameters: key to Activity: Active: Compounds with ACAT inhibiting activity equal to, or greater than, that of chloropromazine are declared active; conditions: for % Inhib. of Chol. Esterf.: Fu5AH cells, 18 hours; for Activity: compared with chlorpromazine
Text: A standard in vitro test system designed to identify compounds capable of inhibitory the ACAT enzyme in cultured Fu5AH rat hepatoma cells which was used to test the compounds of this invention, among others, is described hereinbelow.
Since the ACAT enzyme in Fu5AH cells is similar if not identical to the ACAT enzyme in arterial tissue in valuable, warm-blooded animals, including humans, the Fu5AH cell test represents a more efficient, simplified and economical means of screening for ACAT inhibitors than similar assays which depend upon the use of arterial tissue and arterial subfractions as the source of the ACAT enzyme.
For our in vitro test the Fu5AH rat hepatoma cell line was selected as our source of the ACAT enzyme since this particular cell line mimicked important characteristics of human and valuable animal arterial cells during the development of atherosclerosis. The Fu5AH cells accumulate cholesterol extensively when incubated with hyperlipemic plasma proteins; more importantly, Fu5HA cells accumulated the cholesterol predominantly as the esterified form through the action of the ACAT enzyme. See Rothblat, G. H., "Cholesteryl Ester Metabolism in Tissue Culture Cell. I. Accumulation in Fu5AH Rat Hepatoma Cells", Lipids, 9, (1974) page 526.
The Fu5AH cells used in our in vitro assay were first acquired from G. H. Rothblat, supra, of the Medical College of Pa.
The Fu5AH rat hepatoma cell-line was derived from the Reuber H-35 rat hepatoma. (See Reuber, M.D., "A Transplantable Bilesecreting Hepatocellular Carcinoa in the Rat", J. Natl., Cancer Inst., 26 (1961), page 891. The cell-line is maintained in Eagle's Minimal Essential Medium (MEM, GiBCO) supplemented with 5% bovine fetal calf serum. Incubation is at 36° C. in an atmosphere of 5% CO2 in air (Hotpack, Model 351922). Cells from stock cultures, grown to confluency in 25 cm^2 flasks (Falcon) containing 10 ml. medium, are detached with 0.25% trypsin in 1% ethylenediaminetetraacetic acid (EDTA) (Gibco), diluted 1:10 with MEM and mixed by agitation through a pipette which serves to disrupt the cellular clumps. Stock cultures are replenished with fresh medium at 3 to 4 day intervals.
One ml. aliquots of the diluted stock suspension described above are then transferred to 60 mm. dishes (Falcon) containing four ml. MEM and the seeded cells are allowed to grow to confluence (three days). At confluence, the medium is removed by aspiration and the cells are washed once with MEM. Five ml. of MEM supplemented with 5% hyperlipemic rabbit serum (HRS) (HRS is obtained from male New Zealane rabbits fed Purina Chow® rabbit feed supplemented with 1% cholesterol and 3% peanut oil (w/w/w/) for two to three weeks. Pooled sera from two or more rabbits are filtered through a 0.45 mμ filter (Nalgene) and stored frozen in convenient aliquots until used) and containing 1μ Ci/ml of ^3 H-cholesterol are then added to the dishes as the experimental (assay) medium. The experimental medium is labeled with 1,2-^3 H(N)-cholesterol (sp. act. approx. 40-60 Ci/mol, New Zealand Nuclear Corp.) prior to its addition to the confluent cultures and is prepared as follows. Five ml. of HRS is diluted with approximately 20 ml of MEM and the mixture is labeled by the addition of 100 μCi ^3 H-cholesterol dissolved in 100 μl absolute ethyl alcohol. The resulting mixture is then incubated for four hours at 36° C. to permit equilibration of the labeled cholesterol with the serum lipoprotein-cholesterol. After the equilibration period, the mixture is diluted to 100 ml. with MEM and used as the labeled assay medium. Following the addition of the labeled medium to the dishes, dimethylsulfoxide solutions of the test substances and the positive standard chloropromazine HCl (1 mg/ml) are added to the cultures in volumes of 25, 50, […]; control cultures receive equivalent volumes of dimethylsufoxide alone. […]

[2] = tested on: Moderately Hypercholesterolemic Quail; assay: In vivo testing in moderately hypercholesterolemic quail (serum LDL cholesterol); parameters: species or system Japanese quail; conditions: compound in diet, two weeks
Text: Male SEA Japanese quail, approximately four to six weeks of age, were reared at Miles Quail Farm, Gobles, Mich. from a colony of animals originally derived at The Upjohn Company. Birds were randomly distributed into ten groups of ten quail each. They were house individually in ten cage units and fed a commercial diet (Purina Game Bird Layena, Ralston Purina Co., St. Louis, Mo.) mixed with various amounts of cholesterol with and without 1% peanut oil. Compounds were mixed into 2.4 kg of the diet using a feed mixer (Hobard A-200) for twenty minutes. Control groups received normal diet. In one series of experiments birds were fed 0.5% cholesterol/1% peanut oil plus colestipol hydrochloride. After two weeks on the diets, each bird was bled from the right jugular vein and serum samples were obtained after low speed centrifugation. Food intake was determined for each group by subtracting the weight of diet remaining at the end of the experiment from the weight of the starting diet.
Beta- and alpha-lipoproteins were isolated from individual serum samples using PEG-8000 and glycerine buffer, pH 9 (9). Three hundred microliters of serum were mixed with 300 microliters of solution. A (20 grams of PEG-8000 plus 100 ml of glycerine buffer, pH 9) using a Micromedic automatic pipet. Samples were allowed to stand at room temperature for ten minutes and then were centrifuged for twenty minutes at 2000× g at 4° C. The beta-lipoprotein pellet was dissolved in 300 microliters of solution B (10 ml Triton X-100 plus 1000 ml Milli Q water). Cholesterol, triglycerides and total protein in alpha- and beta-lipoproteins were measured using the Deman Autoanalyzer, Model AU 500 (Cooper Biomedical Inc.) and Worthington Demand Enzymatic reagents.
All data were statistically analyzed using a one-way classification design. Values were transformed to logarithms to achieve more homogenous within-group variances. The mean response for each diet and for the effect was compared with the mean observed in the control animals by the LSD test. Treated/control ratios of antilogs of the log means are also presented.

[3] = tested on: ACAT enzyme; conditions: known drug; cited from earlier work
[4] = tested on: membranes; conditions: known drug; cited from earlier work
[5] = tested on: blood platelet aggregation; conditions: known drug; cited from earlier work

Row | Compound | % Inhib. of Chol. Esterf. ([1]; 5.0 ug/ml) [%] | Activity ([1]; 5.0 ug/ml) | % Inhib. of Chol. Esterf. ([1]; 10.0 ug/ml) [%] | Activity ([1]; 10.0 ug/ml) | % Inhib. of Chol. Esterf. ([1]; 15.0 ug/ml) [%] | Activity ([1]; 15.0 ug/ml) | Percent Change in Serum LDL Cholesterol From Control [2] [%] | ACAT enzyme inhibition (in words) [3] | change of membrane fluidity (in words) [4] | blood platelet aggregation inhibition (in words) [5] | potency for ACAT enzyme inhibition (in words) ([1]; among the compounds of Table I)
1 | C=CCCCCn1c2c(c(=O)n3nc(-c4ccccc4)cc13)CN(C1CCCCC1)C2=O [Example 1, 6-Cyclohexyl-4-(5-hexenyl)-6,7-dihydro-2-phenyl-4H-pyrazolo[1,5-a]pyrrolo[3,4-d]pyrimidine-5,8-dione] | 68.6 | Active | 93.2 | Active | 96.1 | Active | -42 | – | – | – | –
2 | O=C1c2c(c(=O)n3nc(-c4ccccc4)cc3n2Cc2ccccc2)CN1C1CCCCC1 [Example 2, 6-Cyclohexyl-6,7-dihydro-2-phenyl-4-(phenylmethyl)-4H-pyrazolo[1,5-a]pyrrolo[3,4-d]pyrimidine-5,8-dione] | 60.1 | Active | 87.7 | Active | 93.6 | Active | -50 | – | – | – | –
3 | CN(C)CCCN1c2ccccc2Sc2ccc(Cl)cc21 [chlorpromazine] | – | – | – | – | – | – | – | ACAT enzyme inhibitor | change the fluidity of membranes | blood platelet aggregation inhibition properties | –
4 | O=C(Cn1c2c(c(=O)n3nc(-c4ccccc4)cc13)CN(C1CCCCC1)C2=O)c1ccccc1 [Example 4, 4-(Benzoylmethyl)-6-cyclohexyl-6,7-dihydro-2-phenyl-4H-pyrazolo[1,5-a]pyrrolo-[3,4-d]pyrimidine-5,8-dione] | 88.6 | Active | 92.2 | Active | 91.9 | Active | -59 | – | – | – | most potent compound
